# Source: ChEMBL document CHEMBL1136812, “Structure-activity relationships of dimethindene derivatives as new M2-selective muscarinic receptor antagonists” (J Med Chem, 2003)
# Tests used:
# Type in all cases: cell-based
# [1] = biological target: Muscarinic acetylcholine receptor M3 (Homo sapiens, UniProt P20309); test: Binding affinity towards cloned human muscarinic acetylcholine receptor M3 stably expressed in CHO-K1 cells using [3H]N-methylscopolamine
# [2] = biological target: T1, Muscarinic acetylcholine receptor M2 (Homo sapiens, UniProt P08172); test: Binding affinity towards cloned human muscarinic acetylcholine receptor M2 stably expressed in CHO-K1 cells using [3H]N-methylscopolamine
# T1 sequence (P08172 whole entry): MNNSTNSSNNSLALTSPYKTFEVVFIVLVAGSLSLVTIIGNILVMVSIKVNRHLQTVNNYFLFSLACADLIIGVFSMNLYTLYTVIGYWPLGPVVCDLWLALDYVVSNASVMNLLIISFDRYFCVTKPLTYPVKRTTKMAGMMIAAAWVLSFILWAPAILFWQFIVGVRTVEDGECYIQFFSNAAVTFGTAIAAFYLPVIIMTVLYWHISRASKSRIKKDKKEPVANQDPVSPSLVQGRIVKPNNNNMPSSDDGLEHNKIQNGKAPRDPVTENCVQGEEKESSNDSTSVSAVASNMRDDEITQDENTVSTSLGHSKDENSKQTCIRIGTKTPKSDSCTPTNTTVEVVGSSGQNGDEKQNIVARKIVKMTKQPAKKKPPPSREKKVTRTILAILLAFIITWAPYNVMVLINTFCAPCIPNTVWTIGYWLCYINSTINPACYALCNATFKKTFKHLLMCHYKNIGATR
# [3] = biological target: T2, Muscarinic acetylcholine receptor M5 (Homo sapiens, UniProt P08912); test: Binding affinity towards cloned human muscarinic acetylcholine receptor M5 stably expressed in CHO-K1 cells using [3H]N-methylscopolamine
# T2 sequence (P08912 whole entry): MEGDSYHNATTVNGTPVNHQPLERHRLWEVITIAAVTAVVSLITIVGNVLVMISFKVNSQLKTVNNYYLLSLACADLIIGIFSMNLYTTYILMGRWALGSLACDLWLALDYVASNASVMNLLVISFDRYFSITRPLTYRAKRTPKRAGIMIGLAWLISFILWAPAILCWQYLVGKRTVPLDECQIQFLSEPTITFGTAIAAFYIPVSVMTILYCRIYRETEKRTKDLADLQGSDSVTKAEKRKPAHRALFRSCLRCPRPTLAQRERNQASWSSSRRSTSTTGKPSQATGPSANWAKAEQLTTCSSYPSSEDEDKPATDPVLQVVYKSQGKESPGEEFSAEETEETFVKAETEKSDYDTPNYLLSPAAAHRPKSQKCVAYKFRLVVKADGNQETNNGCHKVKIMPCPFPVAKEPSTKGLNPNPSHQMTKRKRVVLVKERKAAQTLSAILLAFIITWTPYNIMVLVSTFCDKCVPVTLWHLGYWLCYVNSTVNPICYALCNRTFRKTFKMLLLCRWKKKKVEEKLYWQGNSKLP
# [4] = biological target: T3, Muscarinic acetylcholine receptor M1 (Homo sapiens, UniProt P11229); test: Binding affinity towards cloned human muscarinic acetylcholine receptor M1 stably expressed in CHO-K1 cells using [3H]N-methylscopolamine
# T3 sequence (P11229 whole entry): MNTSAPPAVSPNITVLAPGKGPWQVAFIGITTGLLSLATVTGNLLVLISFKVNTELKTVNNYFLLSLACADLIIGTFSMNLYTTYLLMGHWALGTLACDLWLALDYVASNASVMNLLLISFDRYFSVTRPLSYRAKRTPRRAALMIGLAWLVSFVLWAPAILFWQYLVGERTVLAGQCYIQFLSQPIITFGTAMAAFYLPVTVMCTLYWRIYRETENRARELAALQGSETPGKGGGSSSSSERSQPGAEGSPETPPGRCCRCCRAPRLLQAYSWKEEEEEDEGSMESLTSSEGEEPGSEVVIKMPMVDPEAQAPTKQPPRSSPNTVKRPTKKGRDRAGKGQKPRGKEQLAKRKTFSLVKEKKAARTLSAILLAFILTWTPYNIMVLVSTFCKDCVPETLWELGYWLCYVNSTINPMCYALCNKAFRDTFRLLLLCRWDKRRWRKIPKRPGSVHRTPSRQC
# [5] = biological target: T4, Muscarinic acetylcholine receptor M4 (Homo sapiens, UniProt P08173); test: Binding affinity towards cloned human muscarinic acetylcholine receptor M4 stably expressed in CHO-K1 cells using [3H]N-methylscopolamine
# T4 sequence (P08173 whole entry): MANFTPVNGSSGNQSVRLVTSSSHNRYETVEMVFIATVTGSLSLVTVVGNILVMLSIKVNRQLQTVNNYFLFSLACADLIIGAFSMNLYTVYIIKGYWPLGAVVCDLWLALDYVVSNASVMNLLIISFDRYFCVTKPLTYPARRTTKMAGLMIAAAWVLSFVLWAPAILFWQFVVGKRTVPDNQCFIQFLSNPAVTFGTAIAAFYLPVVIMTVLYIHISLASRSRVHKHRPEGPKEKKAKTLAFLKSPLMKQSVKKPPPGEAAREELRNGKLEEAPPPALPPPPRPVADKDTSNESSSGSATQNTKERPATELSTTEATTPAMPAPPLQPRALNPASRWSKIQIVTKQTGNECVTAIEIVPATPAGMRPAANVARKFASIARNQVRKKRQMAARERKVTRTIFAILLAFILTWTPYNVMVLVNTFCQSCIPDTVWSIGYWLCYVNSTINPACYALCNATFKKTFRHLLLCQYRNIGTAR
# Chain of Muscarinic acetylcholine receptor M3 (P20309 whole entry): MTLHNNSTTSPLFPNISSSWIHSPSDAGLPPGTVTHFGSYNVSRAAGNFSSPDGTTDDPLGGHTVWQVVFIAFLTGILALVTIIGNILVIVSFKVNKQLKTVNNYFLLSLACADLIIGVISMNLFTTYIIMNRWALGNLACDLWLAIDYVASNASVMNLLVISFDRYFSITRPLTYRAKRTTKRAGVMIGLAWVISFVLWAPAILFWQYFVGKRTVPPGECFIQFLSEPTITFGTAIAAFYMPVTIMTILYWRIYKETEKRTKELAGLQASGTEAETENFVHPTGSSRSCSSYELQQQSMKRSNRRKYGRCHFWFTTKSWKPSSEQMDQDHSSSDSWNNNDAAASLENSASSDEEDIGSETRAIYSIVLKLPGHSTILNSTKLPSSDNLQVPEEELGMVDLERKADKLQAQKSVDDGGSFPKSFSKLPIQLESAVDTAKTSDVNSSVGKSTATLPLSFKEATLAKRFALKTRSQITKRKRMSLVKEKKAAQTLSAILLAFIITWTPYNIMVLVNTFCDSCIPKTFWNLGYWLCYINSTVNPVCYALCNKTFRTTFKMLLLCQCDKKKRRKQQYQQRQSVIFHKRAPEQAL
Ki [1] [nM],Ki [2] [nM],Ki [3] [nM],Ki [4] [nM],Ki [5] [nM],Structure (SMILES)
135000,93300,41700,53700,87100,CN(C)CCNC(=O)C1=C(Cc2ccncc2)c2ccccc2C1
8130,6030,11200,3550,13200,CN(C)CCOC(=O)C1=C(Cc2cccnc2)c2ccccc2C1
11700,6760,10200,4270,8320,CN(C)CCC1=C(Cc2ccncc2)c2ccccc2C1
631,676,302,245,617,CCCC(C1=C(CCN(C)C)Cc2ccccc21)c1ccccn1 (stereo not given)
8910,4900,17400,5370,14800,CN(C)CCOC(=O)C1=C(Cc2ccccn2)c2ccccc2C1
24000,14800,45700,16200,26900,CN(C)CCNC(=O)C1=C(Cc2ccccn2)c2ccccc2C1
309,97.7,676,240,661,CCC(C1=C(CCN(C)C)Cc2ccccc21)c1ccccn1 (stereo not given)
8130,5370,7940,3720,7410,CN(C)CCC1=C(Cc2cccnc2)c2ccccc2C1
49000,39800,66100,49000,46800,CN(C)CCNC(=O)C1=C(Cc2cccnc2)c2ccccc2C1
25.7,15.5,372,52.5,81.3,CN(C)CCC1=C(C(C)(C)c2ccccn2)c2ccccc2C1

# More lines, now with the values behind:
Structure (SMILES),Ki [1] [nM],Ki [2] [nM],Ki [3] [nM],Ki [4] [nM],Ki [5] [nM]
COc1ccc2c(c1)CC(CCN(C)C)=C2C(C)c1ccccn1 (stereo not given),1170,1070,6030,1550,4170
CCN(CC)CCC1=C(C(C)c2ccccn2)c2ccccc2C1 (stereo not given),955,44.7,2090,447,457
CC(C1=C(CCN(C)C)Cc2ccc(Cl)cc21)c1ccccn1 (stereo not given),501,363,912,347,741
CC(C1=C(CCN(C)C)Cc2ccccc21)c1ccccc1 (stereo not given),288,257,309,158,372
CC(C1=C(CN(C)C(C)C)Cc2ccccc21)c1ccccn1 (stereo not given),741,51.3,1120,229,603
COc1ccc2c(c1)C(C(C)c1ccccn1)=C(CCN(C)C)C2 (stereo not given),3160,1020,8910,3720,8510
Cc1ccc2c(c1)C(C(C)c1ccccn1)=C(CCN(C)C)C2 (stereo not given),2510,1950,5890,1620,3240
CC(C1=C(CCN(C)C)Cc2ccc(F)cc21)c1ccccn1 (stereo not given),263,112,1050,331,646
CCC(C1=C(CCN(C)C)Cc2cc(Cl)ccc21)c1ccccn1 (stereo not given),282,107,776,224,832
Cc1ccc2c(c1)CC(CCN(C)C)=C2C(C)c1ccccn1 (stereo not given),501,589,1450,562,1410
CC(C1=C(CCN2CCCCC2)Cc2ccccc21)c1ccccn1 (stereo not given),1780,851,2340,1910,1910
CC(C1=C(CCN2CCCC2)Cc2ccccc21)c1ccccn1 (stereo not given),1910,398,2000,1050,1230
CC(C1=C(CCN2CCOCC2)Cc2ccccc21)c1ccccn1 (stereo not given),2750,1450,2690,4370,4170
